Data reported in patent publication US7323597B2, “Method for the production of diaminoxylene by continuous hydrogenation of liquid phthalonitrile” (BASF Aktiengesellschaft, priority 2003, dated 2008).

Experiment: Solubility of IPN in MXDA
Type: physicochemical
Settings: in MXDA (meta-xylylenediamine) as solvent, at 70° C.

N#Cc1cccc(C#N)c1 [IPN, 1,3-dicyanobenzene]
solubility of IPN in MXDA: approx. 20 % by weight
